From patent US20260209299A1, “TROP2 IMMUNOGENIC PEPTIDE” (ASTON SCIENCE INC., priority 2023, published 2026)

Experiments:
[1] = test system: Type 1 helper T cells (CD4^+IFN-γ^+); test: FACS analysis of Type 1 helper T cells (CD4+IFN-γ+) after peptide treatment of PBMCs; type: cell-based, human; conditions: for Combined Score: (A value×0.8)+(B value×0.2); for IFN-gamma − IL-10: A value: difference between distribution of IFN-γ secreting T cells and distribution of IL-10 secretion; for IFN-gamma − Treg: B value: difference between distribution of IFN-γ secreting T cells and Treg distribution; for IFN-gamma (Th1, CD4+): FACS, healthy human PBMCs, peptide 10 μg/ml with 1 μg/ml anti-CD3, 72 hours, then PMA/ionomycin + GolgiPlug 6 hours; for stimulation of Type 1 helper T cells (CD4+IFN-γ+), flow cytometry plot: FIG. 1, peptide together with PMA, ionomycin; for effect of stimulating Type 1 helper T cells while not stimulating Type 2 helper T cells and regulatory T cells: overall FACS conclusion, Table 2
Protocol: (§1) To this end, the degree of stimulation of Type 1 helper T cells (CD4^+IFN-γ^+), stimulation of interleukin 10 (IL-10)-producing regulatory T cells (CD4^+IL-10+), stimulation of regulatory T cells (CD4^+CD25^+Foxp3^+), and stimulation of Type 2 helper T cells secreting IL-4 and Th17 cells secreting IL-17 according to the treatment with the immunogenic peptide were confirmed.
(§2) Healthy human peripheral blood mononuclear cells (PBMCs; 2,000,000 cells per well) were cultured in 96× round bottom well plates in the presence or absence of anti-CD3 (clone HIT) and peptide at the indicated ratios.
(§3) Specifically, the peptide synthesized in Example 1 at a concentration of 10 μg/ml was cultured with 1 μg/ml of anti-CD3 in a 37° C. incubator for 72 hours. The culture medium consisted of complete RPMI1640 medium supplemented with 10% fetal bovine serum, 10 mM HEPES, 50 µM B-ME, and penicillin/streptomycin/L-glutamine. After 72 hours of culture, the cells were stimulated with Phorbol 12-myristate 13-acetate (50 ng/ml) and Ionomycine (1 μg/mL), which are intracellular cytokine secretion stimulators. To prevent cytokine secretion into the culture medium, the cells were co-stimulated with GolgiPlug, a protein transport inhibitor, at a concentration of 1/100 diluted in PBS for 6 hours in a 37° C. incubator. After stimulation, the cells were washed twice with PBS.
(§4) To determine only the viable cells among the PBMC cells, the cells were labeled with eFlor780-conjugated Fixable Viability dye diluted 1:100 in PBS for 15 minutes at 4° C., and washed twice with stain buffer after 15 minutes. After washing, the cells were surface-labeled with BV421-conjugated anti-CD4 (clone RPA-T4) and PE-Cy5-conjugated anti-CD25 (clone 2A3) antibodies diluted 1:100 in stain buffer for 30 minutes at 4° C. Then, the cells labeled with cell surface proteins were washed twice with stain buffer. Next, to detect cytokines secreted intracellularly, the cells were fixed for 1 hour at room temperature with fixation buffer and then washed with permeabilization buffer. To enable antibodies to detect intracellular cytokines, the fixed cells were labeled overnight at 4° C. with PerCP-Cy5. 5-conjugated anti-IFN-g (clone 4S. B3), Brilliant Violet 510-conjugated anti-IL-4 (clone MP4-25D2), anti-Foxp3 (clone PCH101), and PE-conjugated anti-IL-10 diluted 1:100 in permeabilization (clone JES3-19F1) buffer. Then, the cytokine-labeled cells were washed twice with stain buffer, and cell flow assays were performed using an Attune NxT Acoustic Focusing Cytometer (Invitrogen). Data analysis was performed using Flowjo v10.7.1 software (FlowJo).
1) Calculate the difference between the distribution of IFN-γ secreting T cells and the distribution of IL-10 secretion (A value),
2) Calculate the difference between the distribution of IFN-γ secreting T cells and the Treg distribution (B value),
3) Use the formula “(A value×0.8)+(B value×0.2)” as the final combined scoring, and
(§5) The activity results of the immunogenic peptide candidate group were confirmed by first isolating CD4^+ T cells (helper T cells) from PBMCs, and then classifying the isolated cells into Type 1 helper T cells (CD4^+IFN-γ^+), Type 2 helper T cells (CD4^+IL-4^+), regulatory T cells (CD4^+CD25^+Foxp3^+), and interleukin-10 (IL-10)-producing regulatory T cells (CD4^+IL-10^+) and analyzing the results.

[2] = test system: interleukin 10 (IL-10)-producing regulatory T cells (CD4^+IL-10^+); test: FACS analysis of IL-10-producing regulatory T cells (CD4+IL-10+) after peptide treatment of PBMCs; type: cell-based; conditions: healthy human PBMCs, peptide 10 μg/ml with 1 μg/ml anti-CD3, 72 hours, then PMA/ionomycin + GolgiPlug 6 hours
Protocol: as §2, §3, §4

[3] = test system: regulatory T cells (CD4^+CD25^+Foxp3^+); test: FACS analysis of regulatory T cells (CD4+CD25+Foxp3+) after peptide treatment of PBMCs; type: cell-based; conditions: healthy human PBMCs, peptide 10 μg/ml with 1 μg/ml anti-CD3, 72 hours, then PMA/ionomycin + GolgiPlug 6 hours
Protocol: as §1, §2, §3, §4, §5

[4] = test system: Type 2 helper T cells (CD4^+IL-4^+); test: FACS analysis of Type 2 helper T cells (CD4+IL-4+) after peptide treatment of PBMCs; type: cell-based, human; conditions: FIG. 2; peptide together with PMA, ionomycin
Protocol: as §1, §2, §3
as §4, with “(FlowJo). […]” for “(FlowJo).”

[5] = test system: interferon-gamma (IFN-γ)-forming T cells; test: ELISpot assay of IFN-γ-forming T cells using PBMC; type: cell-based; conditions: FIG. 5; human PBMCs, peptide 10 μg/mL, 70-72 hours
Protocol: The frequency of interferon-gamma (IFN-γ, 3420-4HPW-10, MabTech, Stockholm, Sweden) and interleukin-10 (IL-10, 3430-4HPW-10, MabTech)-forming T cells was assessed using the ELISpot assay.
Specifically, the pre-coated plates were washed four times with 200 μL/well of PBS. Human PBMCs (PCS-800-011, ATCC, Virginia, USA) 2×10^6/mL were dispensed onto the coated plate, and TROP2 peptides were dispensed at 10 μg/mL each and reacted with the PBMCs. The plate reacted under a total volume of 200 μL/well was incubated at 5% CO2, 37° C. for 70-72 hours. Then, the plate was washed 5 times with 200 μL of PBS, and 200 μL of diluted detection antibody (IFN-γ:7-B6-1-biotin; IL-10:12G8-biotin) was added to the wells of the plate, and then reacted at room temperature for 2 hours. After the reaction, the plate was washed 5 times with 200 μL of PBS, and 1:1000 diluted streptavidin-HRP was added at 100 μL/well, followed by reaction at room temperature for 1 hour. Then, the resulting product was washed 5 times with 200 μL of PBS, 100 μL/well of TMB substrate solution was added and reacted at RT for up to 5-10 minutes, and then the spots were counted using the AID iSpot reader system (AID, Strassberg, Germany).

MDA-MB-231 cell line [6] = test: Antitumor effect of cancer vaccine alone in Xenograft cancer mouse model; type: in vivo, athymic Balb/C nude mice; conditions: peptide + CFA/IFA + mGM-CSF, 100 μg per mouse subcutaneously on days 1, 8, 15, 22; vs control group G1
Protocol: (§6) Five-week-old athymic Balb/C nude mice weighing 16 to 18 g were purchased and acclimated for at least 3 to 7 days.
(§7) The MDA-MB-231 cell line, a human-derived triple-negative breast cancer cell line, was suspended at 5×10^6 cells per individual in 200 μl of a 1:1 mixture of PBS and Matrigel and injected subcutaneously into the axillary region between the right scapular area and the thoracic wall of the mouse.
On Day 16 after MDA-MB-231 cell transplantation, 32 mice (mean tumor size 143.8±2.9 mm^3) with tumor sizes reaching approximately 150 mm^3 were selected and assigned to each group of 8 mice.
Each group was divided into Group 1 (G1): PBS+CFA/IFA, Group 2 (G2): SEQ ID NO: 3 peptide+CFA/IFA+mGM-CSF, Group 3 (G3): SEQ ID NO: 10 peptide+CFA/IFA+mGM-CSF, and Group 4 (G4): SEQ ID NO: 17 peptide+CFA/IFA+mGM-CSF.
(§8) Next, the immunogenic peptide (TROP2 peptide) according to the present invention was administered subcutaneously at a dose of 100 μg per mouse on days 1, 8, 15, and 22 (the 16th day after cell transplantation was designated as Day 0, and the following day was designated as Day 1) for a total of 4 times, and the tumor size for each individual was calculated 11 times (0, 1, 4, 7, 11, 14, 18, 21, 25, 28, and 32) from Day 0 to Day 32. Then, the tumor growth change rate was calculated by comparison with the control group of each Test Group.

MDA-MB-231 cell line [7] = test: Antitumor effect of cancer vaccine and antibody-drug conjugate (ADC) in Xenograft cancer mouse model; type: in vivo, athymic Balb/C nude mice; conditions: peptide mix + CFA/IFA + mGM-CSF subcutaneously days 1, 8, 15, 22; Trodelvy 0.81 mg/kg intravenously Days 4 and 11
Protocol: as §6, §7, §8
In order to confirm the antitumor effect of the combination therapy of the immunogenic peptide discovered in the present invention and antibody-drug conjugate (ADC), the antitumor effect was analyzed for the following groups using the same experimental method as in Example 4. […]

| Substance | Combined Score [1] | IFN-gamma − IL-10 [1] | IFN-gamma − Treg [1] | IFN-gamma (Th1, CD4+) [1] | IL-10 (Th2, CD4+) [2] | Treg (CD25+/Foxp3) [3] | stimulation of Type 1 helper T cells (CD4+IFN-γ+), flow cytometry plot [1] | effect of stimulating Type 1 helper T cells while not stimulating Type 2 helper T cells and regulatory T cells [1] | stimulation of Type 2 helper T cells (CD4+IL-4+), flow cytometry plot [4] | number of cells secreting IFN-γ (ELISpot spots) [5] | TGI rate (%) at Day 32 (MDA-MB-231 cell line [6]) | TGI rate (%) at Day 32 (MDA-MB-231 cell line [7]) |
| --- | --- | --- | --- | --- | --- | --- | --- | --- | --- | --- | --- | --- |
| TLIYYLDEIPPKFSM [SEQ ID NO: 20] | 10.26 | 10.82% | 8.03% | 16.10% | 5.28% | 8.07% |  |  |  |  |  |  |
| PKFSMKRLTAGLIAVIV [SEQ ID NO: 22] | 11.25 | 11.75% | 9.25% | 16.90% |  | 7.65% |  |  |  |  |  |  |
| SKCLLLKARMSAPKN [SEQ ID NO: 8] | 11.06 | 11.65% | 8.68% | 16.90% | 5.25% | 8.22% |  |  |  |  |  |  |
| LVRPSEHALVDNDGL [SEQ ID NO: 10] | 17.84 | 18.97% | 13.34% | 21.00% | 2.03% | 7.66% | stimulated Type 1 helper T cells (CD4^+IFN-γ^+) to a high degree | most excellent | hardly stimulated Type 2 helper T cells (CD4^+IL-4^+) | dramatically increased the secretion of IFN-γ | 38.5% |  |
| RGEPLQVERTLIYYL [SEQ ID NO: 18] | 19.62 | 20.80% | 14.89% | 22.90% | 2.10% | 8.01% | stimulated Type 1 helper T cells (CD4^+IFN-γ^+) to a high degree | most excellent | hardly stimulated Type 2 helper T cells (CD4^+IL-4^+) |  |  |  |
| AGLIAVIVVVVVALVAGMAVLVITNRRKSGKYKK [SEQ ID NO: 24] | 11.88 | 12.35% | 10.00% | 17.10% | 4.75% | 7.10% |  |  |  |  |  |  |
| ELRONTSQKAAGDVD (ELRQNTSQKAAGDVD) [SEQ ID NO: 17] | 20.02 | 21.27% | 15.03% | 23.20% | 1.93% | 8.17% | stimulated Type 1 helper T cells (CD4^+IFN-γ^+) to a high degree | most excellent | hardly stimulated Type 2 helper T cells (CD4^+IL-4^+) | dramatically increased the secretion of IFN-γ | 57.2% |  |
| sacituzumab govitecan [Trodelvy] |  |  |  |  |  |  |  |  |  |  |  | 46.1% |
| RERYRLHPKFVAAVH [SEQ ID NO: 15] | 12.27 | 12.87% | 9.87% | 17.80% | 4.93% | 7.93% |  |  |  |  |  |  |
| EPLQVERTLIYYLDE [SEQ ID NO: 19] |  |  |  |  |  |  |  |  |  | dramatically increased the secretion of IFN-γ |  |  |
| SLRCDELVRTHHILIDLRHRPTAGAFN [SEQ ID NO: 11] | 11.16 | 11.71% | 8.97% | 17.20% | 5.49% | 8.23% |  |  |  |  |  |  |
| PLRLPLLLLVLAAVTGHTAAQD [SEQ ID NO: 3] | 20.36 | 21.66% | 15.16% | 24.00% | 2.34% | 8.84% | stimulated Type 1 helper T cells (CD4^+IFN-γ^+) to a high degree | most excellent | hardly stimulated Type 2 helper T cells (CD4^+IL-4^+) | dramatically increased the secretion of IFN-γ | 52.4% |  |
